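Step 1: Grow cells in 96-well plates. Step 2: Expose to compound for 48 hours at 5 concentrations. Step 3: Interpolate endpoints linearly; if unreached, use highest concentration. Abbreviation: GI50, concentration required for 50% inhibition of growth.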 Calls of active or inactive are those of the source. Rule as the data show it: active = GI50 up to about 1.1 µM and inactive = higher.

Some test systems named below: XF498; Malme-3M; HOP-62; RPMI-8226; HOP-18; SNB-19; UACC-62; SN12C; RXF 393; KM12; CAKI-1; U-251; CCRF-CEM; OVCAR-8; SR; M14; TK-10; ACHN; MDA-MB-435; MDA-MB-231.
What all share (assay): growth of human tumour cells (NCI), 48 h

With `COc1cc(/C=C/c2ccc(OC)c(OC)c2)oc(=O)c1`, the GI50 in the test on XF498 was > 250 µM (inactive); with Malme-3M it was > 250 µM (inactive); in the test with HOP-62, 124 µM (inactive); in the test with RPMI-8226 it was > 250 µM (inactive); in the test with HOP-18, 4.88 µM (inactive); in the test on SNB-19 it was > 218 µM (inactive). The GI50 in the test on UACC-62 was 247 µM (inactive); in the test with SN12C it was > 250 µM (inactive); with RXF 393, 57 µM (inactive); in the test on KM12, > 250 µM (inactive); in the test with CAKI-1, > 92.3 µM (inactive); in the test with U-251 it was 199 µM (inactive). Besides, the GI50 in the test on CCRF-CEM was > 194 µM (inactive); in the test with OVCAR-8, 10 µM (inactive).

On to `O=NN(CCCl)C(=O)N[C@H]1CC[C@@H](O)CC1`, for which the GI50 in the test on XF498 was 21.5 µM (inactive); in the test with Malme-3M, 24.8 µM (inactive); in the test with HOP-62, 46.3 µM (inactive); in the test with RPMI-8226 it was 14 µM (inactive); with HOP-18, 35.2 µM (inactive); with SNB-19, 51.2 µM (inactive). Also, the GI50 was 13 µM (inactive) in the test with UACC-62; 36.6 µM (inactive) in the test with SN12C; 23.9 µM (inactive) in the test with RXF 393; 67.5 µM (inactive) with KM12; 27.5 µM (inactive) in the test on CAKI-1; 20.6 µM (inactive) in the test with U-251. The values for the GI50 in the test on CCRF-CEM and in the test on OVCAR-8 were 12.8 µM (inactive) and 33 µM (inactive), respectively.

Regarding `CCOC(=O)C1=C(C)N2CCCOC2(C)C(C(=O)OC)C1c1cccc([N+](=O)[O-])c1` (configuration not stated), the GI50 in the test with SR was 35.2 µM (inactive); in the test on HOP-62, 99.1 µM (inactive); in the test with RPMI-8226, 35 µM (inactive); in the test on SNB-19, > 100 µM (inactive); in the test with M14, > 100 µM (inactive); in the test on UACC-62 it was 45.6 µM (inactive). The GI50 was > 100 µM (inactive) with RXF 393; > 100 µM (inactive) with TK-10; 49.9 µM (inactive) in the test on KM12; 64.9 µM (inactive) with CAKI-1; 76.6 µM (inactive) in the test with CCRF-CEM; 71.6 µM (inactive) in the test on ACHN. In addition, in the test with OVCAR-8, the GI50 was 48 µM (inactive).

In the case of `CCOC(=O)c1ccc(C)c(/N=N/N(C)C)c1`, the GI50 was > 100 µM (inactive) in the test on XF498; 93.1 µM (inactive) in the test on SR; > 100 µM (inactive) in the test with Malme-3M; > 100 µM (inactive) with HOP-62; > 100 µM (inactive) with RPMI-8226; 4.32 µM (inactive) in the test with HOP-18. Moreover, the GI50 with SNB-19 is 86.7 µM (inactive); with M14, > 100 µM (inactive); in the test with UACC-62 it was > 100 µM (inactive); in the test on SN12C, > 100 µM (inactive); with RXF 393 it was > 100 µM (inactive); in the test with TK-10, > 100 µM (inactive). Moreover, the GI50 in the test on KM12, in the test on CAKI-1, with U-251, with CCRF-CEM, in the test with ACHN and in the test on OVCAR-8 was > 100 µM (inactive) in each case.

As to `COc1cccc(N2C(Cl)C(=O)C2c2c[nH]c3ccccc23)c1` (configuration not stated), the GI50 with XF498 was > 100 µM (inactive); in the test with SR, > 100 µM (inactive); with Malme-3M it was 80.9 µM (inactive); with HOP-62, > 100 µM (inactive); in the test on RPMI-8226 it was > 100 µM (inactive); in the test on SNB-19, > 100 µM (inactive). Moreover, the GI50 in the test on M14, with UACC-62, in the test on SN12C, in the test on RXF 393, in the test with TK-10 and in the test with KM12 was > 100 µM (inactive) in each case. Moreover, the GI50 in the test on U-251, with CCRF-CEM and with OVCAR-8 was > 100 µM (inactive) in each case.

With `CC(C)NC(=O)OCc1c(CO)c2c(n1C)-c1ccccc1CC2`, the GI50 in the test with XF498 is 14.2 µM (inactive); with Malme-3M, 23.9 µM (inactive); in the test on HOP-62 it was > 58.3 µM (inactive); with RPMI-8226, 17.7 µM (inactive); with HOP-18, 15 µM (inactive); with SNB-19, 42.2 µM (inactive). The GI50 in the test with UACC-62 was 18.3 µM (inactive); in the test with SN12C, 24.3 µM (inactive); in the test on RXF 393 it was 23.5 µM (inactive); with KM12 it was 34.4 µM (inactive); in the test with CAKI-1, 15.8 µM (inactive); with U-251 it was 27 µM (inactive). For the same compound, the GI50 is 12.6 µM (inactive) in the test on CCRF-CEM and 22.5 µM (inactive) with OVCAR-8.

Take `CCOC(=O)Cn1c(=O)c(C)cn(COCCO)c1=O`: the GI50 in the test with MDA-MB-435, in the test on MDA-MB-231, with Malme-3M, with HOP-62, in the test with RPMI-8226 and with SNB-19 was > 100 µM (inactive) throughout. Besides, the GI50 in the test with M14, in the test with SN12C, in the test on RXF 393, with TK-10, in the test on KM12 and in the test with CAKI-1 was > 100 µM (inactive) throughout. The GI50 is > 100 µM (inactive) in the test with U-251, > 10 µM (inactive) with CCRF-CEM, > 100 µM (inactive) with ACHN and > 100 µM (inactive) in the test with OVCAR-8.

As for `Cc1ccc(C2COc3cc(O)c(O)cc3C2)cc1` (configuration not stated), the GI50 in the test with XF498 was 9.12 µM (inactive); with Malme-3M, 18.7 µM (inactive); with HOP-62, 97.9 µM (inactive); in the test with RPMI-8226 it was 7.11 µM (inactive); with HOP-18, 43.5 µM (inactive); in the test on SNB-19, 39.4 µM (inactive). For the same compound, the GI50 in the test with UACC-62 was 18.5 µM (inactive); with SN12C it was 20.7 µM (inactive); with RXF 393 it was 11.3 µM (inactive); with KM12 it was 22.4 µM (inactive); in the test on CAKI-1, 15.9 µM (inactive); in the test with U-251 it was 17.7 µM (inactive). The GI50 with CCRF-CEM was 1.82 µM (inactive); with OVCAR-8, 15 µM (inactive).

For the compound `CCCCS(=N)(=O)CC[C@H](N)C(=O)O` (some centres not stated) [BUTHIONINE SULFOXIME], the GI50 was > 5000 µM (inactive) in the test on MDA-MB-435; > 5000 µM (inactive) in the test with MDA-MB-231; 476 µM (inactive) in the test on XF498; 286 µM (inactive) in the test with SR; > 5000 µM (inactive) with Malme-3M; > 5000 µM (inactive) with HOP-62. Further, the GI50 in the test with RPMI-8226 was 2460 µM (inactive); in the test on HOP-18, > 5000 µM (inactive); in the test with SNB-19, > 5000 µM (inactive); in the test on M14, > 5000 µM (inactive); in the test with UACC-62, > 5000 µM (inactive); in the test on SN12C, > 5000 µM (inactive). In addition, the GI50 was > 5000 µM (inactive) in the test on RXF 393; > 5000 µM (inactive) with TK-10; > 5000 µM (inactive) with KM12; 3400 µM (inactive) in the test with CAKI-1; > 5000 µM (inactive) with U-251; 1040 µM (inactive) in the test on CCRF-CEM. The GI50 in the test on ACHN is > 5000 µM (inactive); in the test with OVCAR-8, 2320 µM (inactive).

As for `CCCCCCCCCCCCCCCCSCC(COC)COP(=O)([O-])OCC[N+](C)(C)C` (configuration not stated) [ILMOFOSINE], the GI50 with XF498 is 6.3 µM (inactive); in the test on Malme-3M, 15.5 µM (inactive); in the test on HOP-62, 3.43 µM (inactive); in the test on RPMI-8226, 2.49 µM (inactive); in the test with HOP-18, 4.12 µM (inactive); in the test with SNB-19 it was 4.3 µM (inactive). The GI50 in the test with UACC-62 was 4.92 µM (inactive); in the test with SN12C, 3.24 µM (inactive); in the test with RXF 393, 3.52 µM (inactive); with KM12, 0.977 µM (active); in the test with CAKI-1, 3.52 µM (inactive); with U-251, 1.99 µM (inactive). Besides, the GI50 was 2.9 µM (inactive) in the test with CCRF-CEM and 9.06 µM (inactive) in the test on OVCAR-8.
